2 compounds from ChEMBL document CHEMBL1268849, “A conformationally constrained inhibitor with an enhanced potency for β-tryptase and stability against semicarbazide-sensitive amine oxidase (SSAO)” (Bioorg Med Chem Lett, 2010) can be followed below.

For series [1], the system named is semicarbazide-sensitive amine oxidase (SSAO). Put plainly: Chemical stability in presence of 56 ug/mL of human recombinant semicarbazide-sensitive amine oxidase assessed as compound remaining after 24 hrs by LC/MS method. The class given is physicochemical. The note with it: read-out: Stability.
A short description of series [2]: Inhibition of human tryptase-beta using chromogenic substrate S-2366 after 30 mins by spectrophotometry.
Series [3] in a line: Metabolic stability in human liver microsomes after 20 mins. In kind it is ADME, Microsome. The note with it: read-out: Stability. On the technique in general: Liver microsomes are vesicles of endoplasmic reticulum, rich in cytochrome P450 enzymes.
A short description of series [4]: Metabolic stability in rat liver microsomes after 20 mins. In kind it is ADME, Microsome. To be noted: read-out: Stability.
Another series addresses Cytochrome P450 3A4 (Homo sapiens, UniProt P08684). Put plainly: Inhibition of CYP3A4. In kind it is ADME.
For another series, the target named is hERG (KCNH2) (Homo sapiens, UniProt Q12809). Put plainly: Inhibition of human ERG at 10 uM.
Series [5] in a line: Metabolic stability in guinea pig liver microsomes after 20 mins. To be noted: read-out: Stability. The class given is ADME, Cavia porcellus, Microsome.

Sequence of Cytochrome P450 3A4 (P08684 whole entry): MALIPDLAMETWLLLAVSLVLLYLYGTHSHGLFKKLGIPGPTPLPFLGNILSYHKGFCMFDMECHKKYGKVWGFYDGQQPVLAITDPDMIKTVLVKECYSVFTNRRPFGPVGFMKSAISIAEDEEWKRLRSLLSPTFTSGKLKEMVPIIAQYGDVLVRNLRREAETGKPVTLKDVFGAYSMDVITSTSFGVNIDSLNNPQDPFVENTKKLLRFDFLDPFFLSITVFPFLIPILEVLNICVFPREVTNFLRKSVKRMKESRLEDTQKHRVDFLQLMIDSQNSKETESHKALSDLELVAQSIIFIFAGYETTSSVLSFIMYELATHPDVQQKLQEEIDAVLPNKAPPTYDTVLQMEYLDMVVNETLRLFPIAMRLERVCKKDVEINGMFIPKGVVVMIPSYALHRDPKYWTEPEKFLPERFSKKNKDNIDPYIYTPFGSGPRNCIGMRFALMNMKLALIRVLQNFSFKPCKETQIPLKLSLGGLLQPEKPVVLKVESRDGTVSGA
Sequence of hERG (KCNH2) (Q12809 whole entry): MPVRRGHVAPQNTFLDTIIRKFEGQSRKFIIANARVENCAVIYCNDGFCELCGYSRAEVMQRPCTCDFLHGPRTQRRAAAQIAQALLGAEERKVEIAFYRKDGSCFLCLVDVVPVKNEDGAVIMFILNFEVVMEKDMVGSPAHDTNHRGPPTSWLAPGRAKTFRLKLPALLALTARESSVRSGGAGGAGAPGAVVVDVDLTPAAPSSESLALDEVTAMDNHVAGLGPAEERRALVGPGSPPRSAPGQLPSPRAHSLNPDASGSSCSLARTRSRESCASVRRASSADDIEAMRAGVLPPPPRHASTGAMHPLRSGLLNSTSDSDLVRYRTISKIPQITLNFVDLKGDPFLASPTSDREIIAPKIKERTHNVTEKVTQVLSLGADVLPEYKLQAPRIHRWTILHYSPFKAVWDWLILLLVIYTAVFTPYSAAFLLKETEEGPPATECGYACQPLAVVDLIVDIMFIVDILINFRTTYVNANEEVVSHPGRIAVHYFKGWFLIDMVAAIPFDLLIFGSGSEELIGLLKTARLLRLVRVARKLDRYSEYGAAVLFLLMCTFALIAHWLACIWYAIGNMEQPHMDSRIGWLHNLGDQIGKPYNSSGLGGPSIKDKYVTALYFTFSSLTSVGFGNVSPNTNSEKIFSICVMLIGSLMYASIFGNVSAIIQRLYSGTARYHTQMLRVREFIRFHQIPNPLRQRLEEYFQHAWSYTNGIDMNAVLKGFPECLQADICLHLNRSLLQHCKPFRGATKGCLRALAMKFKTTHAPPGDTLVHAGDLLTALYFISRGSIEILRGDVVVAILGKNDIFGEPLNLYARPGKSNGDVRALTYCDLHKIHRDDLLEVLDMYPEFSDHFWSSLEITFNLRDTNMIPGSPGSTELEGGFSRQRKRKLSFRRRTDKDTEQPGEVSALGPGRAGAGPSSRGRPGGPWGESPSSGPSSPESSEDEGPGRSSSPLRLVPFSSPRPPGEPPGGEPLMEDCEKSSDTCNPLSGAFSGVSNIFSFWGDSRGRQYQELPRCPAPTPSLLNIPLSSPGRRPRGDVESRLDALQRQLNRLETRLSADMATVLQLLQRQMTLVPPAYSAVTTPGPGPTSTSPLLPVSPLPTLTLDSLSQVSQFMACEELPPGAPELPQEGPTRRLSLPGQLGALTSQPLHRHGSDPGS

What is called Ki is a dissociation constant, usually derived from enzyme kinetics or from competition with a known ligand. Read a low Ki as tighter binding. Take `COCCn1cc(C(=O)N2CCC(c3cc(CN)ccc3F)CC2)c2ccccc21`: in series [1], the remaining at 24 h was 67%. In addition, affinity in series [2] was put at a Ki of 0.0542 µM.
For orientation: inhibition means the share of the control response that was lost under treatment. A low value points to a weak effect. `COCCn1cc(C(=O)N2CCC(c3cc(CN)ccc3F)CC2)c2c(C(=O)N(C)C)cccc21.Cl`: the remaining at 20 min in series [3] worked out at 67%; in series [4], 92%; in series [5], 69%. The remaining at 24 h in series [1] was determined as 100%. On Cytochrome P450 3A4, this compound had an INH greater than 30 µM. In addition, the inhibition at 10 µM at hERG (KCNH2) came to 16%. For the same compound, affinity in series [2] was put at a Ki of 0.02 µM.
